# Read-outs that look alike come from different tables or passages of the source.
# Legend:
# [1] = acute toxicity test in mice (Litchfield and Wilcoxon); assay type: in vivo, mouse; conditions: mouse, in vivo, po., 14 days observation
# Summary of the method: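 CFLP white mice of both sexes (18-22 g, 10 per dose group) were dosed orally at a volume of 20 ml/kg. Animals had free access to water and feed. Toxicity data were calculated by the Litchfield and Wilcoxon method.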
# [2] = test system: aconitine-induced ECG alterations; assay: animal or person; assay type: in vivo, rat
# Summary of the method: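 Urethane-anaesthetised rats (1.2 g/kg ip., 160–200 g) given aconitine 75 /ug/kg i.v. bolus; lead II ECG scored 0–5 over 5 minutes. Compounds given 2 min (parenteral) or 60 min (oral) before aconitine.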
# nervus ischiadicus = assay: local analgesic effect (Truant d'Amato's method); assay type: in vivo; conditions: 0.2 ml injected around nervus ischiadicus
# Description: The tests were carried out according to Truant d'Amato's method. 0.2 ml of test material was injected around the nervus ischiadicus in the middle of femur with a needle of 1 cm length. The criterion of analgesic effect was the lack of the motoric control of foot muscles.
# The duration of effect was registered and the 50 percentile effective concentration (EC50) was calculated on the basis of the dose-effect curve. Lidocain was used as comparative material. (Truant, A. P., D'Amato, D.: Acta Chir Scand. 116, 351/1958/)
# gastric acid secretion = gastric acid secretion test (Shay); assay type: in vivo, rat; conditions: Rattus norvegicus; dose 200 mg/kg po., rats; read-out: Inhibition of free acid, %
# Description: The test was carried out according to Shay's operational method. […] On the day of the test the pylorus of the animals was bound under ether narcosis. The test compounds were administered orally 3 hours before the operation. The animals of the control group were administered with the carrier only. 4 hours after the operation the stomach was removed, the content thereof was centrifuged and the amount of free acid was determined by titration with 0.1N sodium hydroxide.
# [3] = test system: peristalty of stomach and intestines; assay: effect exerted on the peristalty of stomach and intestines (Stickney et al., carbon suspension); assay type: in vivo, mouse; conditions: po., mice
# Description: The antiperistaltic effect of the compounds was examined by the method of Stickney et al. on white mice of both sexes, weighing 20 to 25 g. The compounds to be tested were administered per os 60 minutes before the addition of carbon suspension to groups containing 10 mice each. The animals of the control groups were treated at the same time and in the same manner with the carrier only. The mice were killed 10 minutes after the addition of the carbon suspension, and the whole length of the intestines as well as the length of the intestines filled with carbon suspension were measured.
# [4] = absorption judged by ED50 per os/ED50 iv; conditions: in vivo
# Description: The compounds of formula I according to the invention can well be absorbed if administered either orally or parenterally.
# LD50 po. on rat = conditions: in vivo
# blood pressure = conditions: background art; cited from earlier work
# level of lipids = conditions: background art; cited from earlier work
compound,measurement,setting,value
"CC(C)N(CC(O)CO/N=C1\CCCC\C1=C/c1ccccc1)C(C)C (racemic) [Example 1, R,S-2-(E)-Phenylmethylene-1-(E)-{3-[bis-(1-methylethyl)-amino]-2-hydroxy-propoxyimino}-cyclohexane]",LD50 at 336 h,[1],400 mg/kg
same,ED50,"[2]; Rattus norvegicus, iv, read-out: ED50 iv",1.21 mg/kg
same,ED50,"[2]; Rattus norvegicus, iv, read-out: ED50 iv. (antiarrhythmic)",1.21 mg/kg
same,change in vivo at 4 mg/kg,"[2]; Rattus norvegicus, iv, read-out: Effect % (antiarrhythmic)",-89.5%
same,ED50,"[2]; Rattus norvegicus, po, read-out: ED50 (antiarrhythmic, per os)",27.3 mg/kg
same,ED50,"[2]; Rattus norvegicus, po, read-out: ED50 per os",24.4 mg/kg
same,change in vivo at 100 mg/kg,"[2]; Rattus norvegicus, po, read-out: Effect % (antiarrhythmic)",-100%
same,effect compared to the control compounds regarding the absolute dose,[2]; administered orally,multiplied effect compared to the control compounds
same,TI (therapeutic index),"[2]; antiarrhythmic, per os, rat",64.6
same,"therapeutical activity range, times higher than that of Quinidine","[2]; per os, rats, vs Quinidine",5.8 times
same,EC50 %,nervus ischiadicus,0.04%
same,inhibition in vivo at 200 mg/kg,gastric acid secretion,70%
same,ED50,"[3]; Mus musculus, read-out: ED50 (antiperistaltic)",~80 mg/kg
same,TI (therapeutic index),[3]; antiperistaltic,about 5
same,absorption ratio (ED50 po / ED50 iv),[4],20.6
same,absorption,[4]; po,much better than that of the cited compound of formula (e)
same,LD50,LD50 po. on rat,1760 mg/kg
COc1cccc(C=NOCC(O)CN2CCN(c3ccccc3OC)CC2)c1 (stereo not shown) [Paradoxime],blood pressure reducing activity,blood pressure,shows blood pressure reducing activity
OC(CON=Cc1ccc(Cl)cc1)CN1CCN(c2ccccc2Cl)CC1 (stereo not shown) [Peraclopone],reduction of the level of lipids,level of lipids,reduces the level of lipids

# Reference: patent US5234934A, “Aminopropanol derivatives, process for their preparation and pharmaceutical compositions comprising the same” (priority 1989, dated 1993)
